Data from ChEMBL document CHEMBL1201862, “PubChem BioAssay data set” (2004).
Where “and” joins values, the source holds several entries; their conditions need not be identical. Equal entries are not always repeated. Calls of active or inactive are those of the source.

Columns and labels:
[1] = BHK-21 cell cytotoxicity, cytotoxicity control for flavivirus guanylyltransferase probe project, secondary screen (AID 624078); assay type: functional
cells [2] = conditions: HEK293
HeLa = assay: HeLa cell cytotoxicity, dose response, cytotoxicity control for MITF activator project, CellTiter-Glo luminescence, cherry-pick samples (AID 540259); assay type: functional, cell-based; conditions: Homo sapiens
cells [3] = conditions: A549
[4] = target: Protein disulfide-isomerase (Homo sapiens, UniProt P07237); assay: PDI inhibitors, insulin turbidity readout, confirmation, biochemical, dry powder samples, set 2 (AID 652146)
Nonstructural protein 1 = Nonstructural protein 1 (Influenza A virus, UniProt Q194T2); assay type: functional, Influenza A virus (A/California/07/2009(H1N1))
Chain of Nonstructural protein 1 (Q194T2 whole entry): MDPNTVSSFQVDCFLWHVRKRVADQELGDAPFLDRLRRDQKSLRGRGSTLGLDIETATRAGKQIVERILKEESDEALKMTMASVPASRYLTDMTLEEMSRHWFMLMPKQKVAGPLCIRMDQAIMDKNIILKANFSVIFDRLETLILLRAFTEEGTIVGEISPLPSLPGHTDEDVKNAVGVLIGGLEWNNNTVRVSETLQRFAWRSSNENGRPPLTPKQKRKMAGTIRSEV

Albumin = Albumin (Bos taurus, UniProt P02769); assay: Counterscreen for inhibitors of T-cell receptor (TCR)-CD3 interaction: Fluorescence-based biochemical high throughput dose response assay to identify inhibitors of T-cell receptor (TCR)-CD3 interaction using a TAMRA-labeled BSA probe.; assay type: functional
Chain of Albumin (P02769 whole entry): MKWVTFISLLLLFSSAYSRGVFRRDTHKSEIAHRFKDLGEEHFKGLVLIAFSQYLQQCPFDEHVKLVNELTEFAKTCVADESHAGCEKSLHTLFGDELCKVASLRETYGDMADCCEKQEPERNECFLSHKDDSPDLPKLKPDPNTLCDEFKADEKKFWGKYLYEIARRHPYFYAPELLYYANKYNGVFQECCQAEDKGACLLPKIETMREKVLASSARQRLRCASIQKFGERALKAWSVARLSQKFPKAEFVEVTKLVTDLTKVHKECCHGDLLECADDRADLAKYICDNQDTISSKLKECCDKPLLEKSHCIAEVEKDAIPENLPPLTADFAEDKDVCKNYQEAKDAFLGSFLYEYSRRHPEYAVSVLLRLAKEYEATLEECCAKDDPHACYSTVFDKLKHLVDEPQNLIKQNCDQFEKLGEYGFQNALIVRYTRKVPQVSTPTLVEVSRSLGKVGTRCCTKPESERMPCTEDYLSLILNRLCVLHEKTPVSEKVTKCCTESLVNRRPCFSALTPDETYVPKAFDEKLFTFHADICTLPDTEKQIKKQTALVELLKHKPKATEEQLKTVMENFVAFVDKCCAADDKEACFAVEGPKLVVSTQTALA

Protein Tat = Protein Tat (Human immunodeficiency virus type 1 group M subtype B (isolate HXB2)(HIV-1), UniProt P04608); assay type: functional;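 note: tat binding to TAR RNA read out by fluorescence polarization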
Chain of Protein Tat (P04608 whole entry): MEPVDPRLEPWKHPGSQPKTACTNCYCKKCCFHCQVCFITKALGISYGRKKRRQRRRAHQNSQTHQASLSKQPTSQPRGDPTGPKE

Caspase-6 = target: T1, Caspase-6 (Homo sapiens, UniProt P55212); assay: human caspase-6 inhibitors, dose response, biochemical, VEID-R110 fluorescence, cherry-pick (AID 720632)
T1 sequence (P55212 whole entry): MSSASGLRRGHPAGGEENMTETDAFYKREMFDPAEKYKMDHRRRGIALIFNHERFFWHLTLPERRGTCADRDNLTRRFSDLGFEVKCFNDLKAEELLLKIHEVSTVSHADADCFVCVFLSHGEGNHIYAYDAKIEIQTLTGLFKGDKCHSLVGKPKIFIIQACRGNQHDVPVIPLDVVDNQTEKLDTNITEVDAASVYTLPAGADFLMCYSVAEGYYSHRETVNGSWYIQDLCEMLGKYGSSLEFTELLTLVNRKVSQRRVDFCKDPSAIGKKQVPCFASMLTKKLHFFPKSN

Caspase-8 = Caspase-8 (Homo sapiens, UniProt Q14790); assay: caspase-8 inhibition counter-screen, dose response, selectivity assay for caspase-6 inhibitor project, biochemical, Z-IETD-R110 fluorescence, cherry-picked samples (AID 743294)
[5] = target: DNA dC->dU-editing enzyme APOBEC-3A (Homo sapiens, UniProt P31941); assay: Dose Response confirmation of small molecule APOBEC3A DNA Deaminase Inhibitors via a fluorescence-based single-stranded DNA deaminase assay. [Related pubchem assays (depositor defined):AID493011, AID493024]; assay type: functional
[6] = THP-1 cell cytotoxicity, dose response, cytotoxicity control for Vif-APOBEC3G degradation inhibitor project, THP-1 cells (AID 1117359); assay type: functional; conditions: Human immunodeficiency virus 1, THP-1
[7] = target: DNA dC->dU-editing enzyme APOBEC-3G (Homo sapiens, UniProt Q9HC16); assay type: functional;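 note: Dose-response counterscreen measuring inhibition of APOBEC3G DNA deaminase activity, run while confirming APOBEC3A inhibitors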
[8] = T. cruzi growth inhibition in host cells, dose response, cell-based, plate reader, dry powder, set 2 (AID 652275); assay type: functional
[9] = target: T2, Sentrin-specific protease 8 (Homo sapiens, UniProt Q96LD8); assay type: functional
T2 sequence (Q96LD8 whole entry): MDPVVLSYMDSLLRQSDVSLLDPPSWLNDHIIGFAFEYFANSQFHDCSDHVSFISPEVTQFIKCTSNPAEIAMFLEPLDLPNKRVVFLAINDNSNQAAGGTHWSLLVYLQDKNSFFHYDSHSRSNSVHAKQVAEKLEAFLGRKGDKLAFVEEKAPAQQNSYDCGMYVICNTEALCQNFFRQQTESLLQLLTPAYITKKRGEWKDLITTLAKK

Protein RecA = target: T3, Protein RecA (Mycobacterium tuberculosis, UniProt P9WHJ3); assay: Fluorescence Cell-Free Homogeneous Dose Retest to Identify Inhibitors of RecA-Intein Splicing Activity. [Related pubchem assays (depositor defined):AID2097, AID2223, AID489010, AID492950]; assay type: functional
T3 sequence (P9WHJ3 whole entry): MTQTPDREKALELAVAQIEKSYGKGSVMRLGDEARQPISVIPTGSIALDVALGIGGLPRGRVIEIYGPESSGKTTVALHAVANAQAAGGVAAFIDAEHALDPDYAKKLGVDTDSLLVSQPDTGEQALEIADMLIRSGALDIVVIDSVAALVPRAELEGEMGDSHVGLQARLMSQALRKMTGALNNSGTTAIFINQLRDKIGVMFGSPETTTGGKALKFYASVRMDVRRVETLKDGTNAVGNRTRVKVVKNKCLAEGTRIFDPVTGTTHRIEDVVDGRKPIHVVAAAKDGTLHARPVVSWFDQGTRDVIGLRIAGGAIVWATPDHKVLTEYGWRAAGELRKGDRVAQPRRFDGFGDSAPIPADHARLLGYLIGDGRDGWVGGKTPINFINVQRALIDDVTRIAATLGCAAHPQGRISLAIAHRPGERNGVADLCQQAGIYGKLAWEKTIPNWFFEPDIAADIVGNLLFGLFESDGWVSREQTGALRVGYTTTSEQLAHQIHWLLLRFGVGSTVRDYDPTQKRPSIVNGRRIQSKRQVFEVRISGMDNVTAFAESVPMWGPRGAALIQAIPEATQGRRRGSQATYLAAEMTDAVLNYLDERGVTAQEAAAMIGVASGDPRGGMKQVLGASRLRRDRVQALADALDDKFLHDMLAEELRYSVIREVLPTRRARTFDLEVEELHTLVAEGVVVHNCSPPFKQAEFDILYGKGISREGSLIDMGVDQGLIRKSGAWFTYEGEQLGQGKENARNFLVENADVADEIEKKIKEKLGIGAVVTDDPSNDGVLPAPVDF

Caspase-3 = target: T4, Caspase-3 (Homo sapiens, UniProt P42574); assay: Dose-response confirmation of uHTS inhibitor hits of Sentrin-Specific Protease 8 in a Caspase-3 Fluorescence assay.; assay type: functional
T4 sequence (P42574 whole entry): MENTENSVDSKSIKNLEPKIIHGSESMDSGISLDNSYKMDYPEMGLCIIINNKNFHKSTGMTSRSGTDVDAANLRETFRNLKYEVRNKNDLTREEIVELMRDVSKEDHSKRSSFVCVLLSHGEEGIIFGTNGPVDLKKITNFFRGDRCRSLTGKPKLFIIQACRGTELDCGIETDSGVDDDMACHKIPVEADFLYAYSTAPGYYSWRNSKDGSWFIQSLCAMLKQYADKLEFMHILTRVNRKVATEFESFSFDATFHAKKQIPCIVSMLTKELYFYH

[10] = target: T5, Replicative DNA helicase DnaB (Mycobacterium tuberculosis, UniProt P9WMR3); assay: DnaB intein splicing inhibitors, dose response, biochemical, cell-free fluorescence (AID 449749); assay type: functional
T5 sequence (P9WMR3 whole entry): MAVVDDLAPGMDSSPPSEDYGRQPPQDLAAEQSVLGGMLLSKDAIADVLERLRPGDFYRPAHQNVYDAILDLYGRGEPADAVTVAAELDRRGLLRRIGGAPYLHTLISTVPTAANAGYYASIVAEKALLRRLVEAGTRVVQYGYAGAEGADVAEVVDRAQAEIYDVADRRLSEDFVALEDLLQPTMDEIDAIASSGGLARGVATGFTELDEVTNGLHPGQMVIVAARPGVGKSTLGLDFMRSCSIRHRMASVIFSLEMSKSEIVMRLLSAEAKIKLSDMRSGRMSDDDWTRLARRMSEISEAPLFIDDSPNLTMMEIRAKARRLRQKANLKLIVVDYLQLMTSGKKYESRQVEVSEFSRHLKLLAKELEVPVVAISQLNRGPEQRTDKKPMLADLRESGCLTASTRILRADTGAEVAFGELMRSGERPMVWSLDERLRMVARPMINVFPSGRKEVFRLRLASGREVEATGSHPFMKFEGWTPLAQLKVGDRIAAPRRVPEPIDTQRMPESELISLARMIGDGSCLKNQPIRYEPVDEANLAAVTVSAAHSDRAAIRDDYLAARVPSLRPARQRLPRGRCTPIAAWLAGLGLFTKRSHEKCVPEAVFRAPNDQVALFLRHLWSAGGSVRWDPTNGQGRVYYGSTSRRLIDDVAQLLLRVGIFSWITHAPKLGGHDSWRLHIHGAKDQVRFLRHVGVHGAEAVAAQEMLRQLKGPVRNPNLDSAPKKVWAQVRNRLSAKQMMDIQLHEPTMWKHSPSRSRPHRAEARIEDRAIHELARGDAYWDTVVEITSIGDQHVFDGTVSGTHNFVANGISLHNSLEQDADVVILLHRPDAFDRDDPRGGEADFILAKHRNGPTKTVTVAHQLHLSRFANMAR

[11] = target: T2, Sentrin-specific protease 8; assay type: functional; remark: listed apart in the source
[12] = target: SWI/SNF-related matrix-associated actin-dependent regulator of chromatin subfamily A member 2 (Homo sapiens, UniProt P51531); assay: Luminescence-based cell-based high throughput dose response assay to identify activators of the function of SWI/SNF related, matrix associated, actin dependent regulator of chromatin, subfamily a, member 2 (SMARCA2, BRM).; assay type: functional
Chain of SWI/SNF-related matrix-associated actin-dependent regulator of chromatin subfamily A member 2 (P51531 whole entry): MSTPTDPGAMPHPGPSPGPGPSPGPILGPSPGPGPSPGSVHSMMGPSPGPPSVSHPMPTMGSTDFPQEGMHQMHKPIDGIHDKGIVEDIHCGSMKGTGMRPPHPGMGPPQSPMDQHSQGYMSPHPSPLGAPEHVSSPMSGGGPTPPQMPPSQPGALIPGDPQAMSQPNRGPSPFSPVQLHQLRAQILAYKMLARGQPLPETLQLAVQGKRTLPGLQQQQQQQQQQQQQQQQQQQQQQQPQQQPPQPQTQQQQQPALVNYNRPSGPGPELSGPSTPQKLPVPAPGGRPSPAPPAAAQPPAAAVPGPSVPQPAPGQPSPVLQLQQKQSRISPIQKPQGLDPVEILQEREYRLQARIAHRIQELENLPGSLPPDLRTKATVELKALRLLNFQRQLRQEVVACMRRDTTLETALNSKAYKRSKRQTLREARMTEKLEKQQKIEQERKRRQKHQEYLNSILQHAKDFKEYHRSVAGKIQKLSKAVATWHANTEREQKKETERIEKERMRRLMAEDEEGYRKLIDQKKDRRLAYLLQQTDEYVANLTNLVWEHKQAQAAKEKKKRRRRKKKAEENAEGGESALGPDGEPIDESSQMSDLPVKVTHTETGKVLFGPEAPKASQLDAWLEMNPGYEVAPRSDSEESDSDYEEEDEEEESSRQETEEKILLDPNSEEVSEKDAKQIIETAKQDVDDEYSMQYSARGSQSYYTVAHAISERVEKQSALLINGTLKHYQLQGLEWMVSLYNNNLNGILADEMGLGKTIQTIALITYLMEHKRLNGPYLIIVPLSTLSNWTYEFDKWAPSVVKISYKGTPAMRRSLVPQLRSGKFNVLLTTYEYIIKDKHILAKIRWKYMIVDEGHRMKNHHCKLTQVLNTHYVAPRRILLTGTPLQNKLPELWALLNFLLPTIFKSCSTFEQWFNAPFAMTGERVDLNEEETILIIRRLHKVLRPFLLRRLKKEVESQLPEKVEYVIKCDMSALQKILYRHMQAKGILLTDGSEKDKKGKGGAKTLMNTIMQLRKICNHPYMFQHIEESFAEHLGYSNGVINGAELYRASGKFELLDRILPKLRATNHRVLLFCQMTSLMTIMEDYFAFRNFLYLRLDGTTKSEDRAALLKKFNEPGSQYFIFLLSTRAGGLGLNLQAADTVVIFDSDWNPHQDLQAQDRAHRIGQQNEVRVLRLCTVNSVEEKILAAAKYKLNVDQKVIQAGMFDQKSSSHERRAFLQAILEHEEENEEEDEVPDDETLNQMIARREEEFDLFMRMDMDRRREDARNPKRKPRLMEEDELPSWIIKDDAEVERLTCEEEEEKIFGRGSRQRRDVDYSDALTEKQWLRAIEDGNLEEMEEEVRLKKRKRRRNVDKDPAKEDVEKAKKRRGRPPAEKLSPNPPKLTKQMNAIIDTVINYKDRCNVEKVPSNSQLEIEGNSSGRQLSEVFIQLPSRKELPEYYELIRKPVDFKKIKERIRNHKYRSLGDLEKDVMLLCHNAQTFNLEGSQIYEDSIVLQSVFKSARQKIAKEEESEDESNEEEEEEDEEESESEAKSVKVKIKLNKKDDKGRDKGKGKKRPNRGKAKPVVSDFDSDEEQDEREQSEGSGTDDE

[13] = Counterscreen for activators of the function of SWI/SNF related, matrix associated, actin dependent regulator of chromatin, subfamily a, member 2 (SMARCA2, BRM): Luminescence-based cell-based high throughput dose response assay to identify non-selective compounds using the VP16 reporter assay.; assay type: functional
Vero [14] = assay: cells; assay type: functional; conditions: Chlorocebus sabaeus
[15] = HEK293T cell cytotoxicity, dose response, cytotoxicity control for HIV Vif inhibitor project, cherry-picks (AID 652208); assay type: functional, cell-based
[16] = target: T6, Beta-2 adrenergic receptor (Homo sapiens, UniProt P07550); assay: Dose response for HTS for Beta-2AR agonists via FAP method from Powderset2.; assay type: functional
T6 sequence (P07550 whole entry): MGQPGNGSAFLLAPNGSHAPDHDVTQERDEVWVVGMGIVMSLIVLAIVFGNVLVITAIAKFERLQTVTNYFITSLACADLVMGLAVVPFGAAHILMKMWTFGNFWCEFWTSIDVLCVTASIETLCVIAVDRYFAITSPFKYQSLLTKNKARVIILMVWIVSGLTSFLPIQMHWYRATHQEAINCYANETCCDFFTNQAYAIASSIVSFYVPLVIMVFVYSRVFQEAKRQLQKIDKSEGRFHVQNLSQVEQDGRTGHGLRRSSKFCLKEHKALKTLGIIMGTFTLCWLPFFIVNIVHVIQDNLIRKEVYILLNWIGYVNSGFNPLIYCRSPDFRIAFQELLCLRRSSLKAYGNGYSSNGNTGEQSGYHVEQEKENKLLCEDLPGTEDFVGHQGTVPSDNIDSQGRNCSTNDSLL

[17] = target: T6, Beta-2 adrenergic receptor; assay: beta2AR agonists driving receptor internalization, dose response, cell-based, FAP fluorogen, flow cytometry, cherry pick 1 (AID 588763); assay type: functional
[18] = Late stage assay provider results from the probe development effort to identify selective inhibitors of heat shock protein 90 (HSP90): Absorbance-based cell proliferation assay in SKBR3 cells.; assay type: functional; conditions: SK-BR-3
[19] = Late stage assay provider results from the probe development effort to identify selective inhibitors of heat shock protein 90 (HSP90): Absorbance-based cell proliferation assay in MCF7 cells.; assay type: functional
Vero [20] = assay: Vero cell toxicity, dose response, cytotoxicity control, plate reader, cherry-pick samples (AID 687020); assay type: functional, cell-based; conditions: Chlorocebus sabaeus
fMet-Leu-Phe receptor = fMet-Leu-Phe receptor (Homo sapiens, UniProt P21462); assay: FPR ligands, dose response (AID 519); assay type: functional
Chain of fMet-Leu-Phe receptor (P21462 whole entry): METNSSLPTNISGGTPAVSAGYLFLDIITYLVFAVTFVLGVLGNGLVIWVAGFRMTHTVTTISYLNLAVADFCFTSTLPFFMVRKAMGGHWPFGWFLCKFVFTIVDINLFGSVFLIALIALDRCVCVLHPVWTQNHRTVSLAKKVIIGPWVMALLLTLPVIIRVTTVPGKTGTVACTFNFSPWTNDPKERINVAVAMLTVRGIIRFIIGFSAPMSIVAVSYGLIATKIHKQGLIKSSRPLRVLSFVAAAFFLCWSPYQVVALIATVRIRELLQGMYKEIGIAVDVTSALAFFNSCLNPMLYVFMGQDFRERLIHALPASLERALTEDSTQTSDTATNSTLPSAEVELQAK

[21] = target: Endoplasmic reticulum aminopeptidase 1 (Homo sapiens, UniProt Q9NZ08); assay: ERAP1 aminopeptidase inhibitors, dose response, biochemical, cherry-pick, set 2, plate reader (AID 743314)
Chain of Endoplasmic reticulum aminopeptidase 1 (Q9NZ08 whole entry): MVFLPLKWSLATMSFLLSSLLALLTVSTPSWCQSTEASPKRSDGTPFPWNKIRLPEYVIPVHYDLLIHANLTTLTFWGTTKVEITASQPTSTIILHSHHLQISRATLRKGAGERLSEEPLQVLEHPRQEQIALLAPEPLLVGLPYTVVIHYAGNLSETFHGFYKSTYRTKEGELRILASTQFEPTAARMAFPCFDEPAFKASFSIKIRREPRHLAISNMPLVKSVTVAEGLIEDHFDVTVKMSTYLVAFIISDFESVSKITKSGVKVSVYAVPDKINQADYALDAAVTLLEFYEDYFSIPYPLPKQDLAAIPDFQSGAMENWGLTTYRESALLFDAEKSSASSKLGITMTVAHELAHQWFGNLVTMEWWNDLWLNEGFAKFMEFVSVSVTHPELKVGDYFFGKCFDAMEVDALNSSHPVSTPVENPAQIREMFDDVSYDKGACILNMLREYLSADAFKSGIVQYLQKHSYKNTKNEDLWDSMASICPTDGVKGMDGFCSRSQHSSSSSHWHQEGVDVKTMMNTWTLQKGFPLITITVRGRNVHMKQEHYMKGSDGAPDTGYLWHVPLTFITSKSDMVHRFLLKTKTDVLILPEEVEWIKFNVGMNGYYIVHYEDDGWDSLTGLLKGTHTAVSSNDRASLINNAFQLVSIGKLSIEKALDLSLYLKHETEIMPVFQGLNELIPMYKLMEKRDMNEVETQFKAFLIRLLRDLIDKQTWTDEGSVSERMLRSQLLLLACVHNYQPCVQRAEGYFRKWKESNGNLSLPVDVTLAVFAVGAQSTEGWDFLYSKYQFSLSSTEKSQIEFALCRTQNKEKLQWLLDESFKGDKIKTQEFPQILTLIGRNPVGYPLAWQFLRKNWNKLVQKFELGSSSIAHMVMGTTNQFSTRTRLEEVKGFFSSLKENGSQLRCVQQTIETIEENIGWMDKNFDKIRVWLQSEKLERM

[22] = target: Delta-type opioid receptor (Homo sapiens, UniProt P41143); assay: Late-stage results from the probe development effort to identify antagonists of OPRK1: fluorescence-based cell-based dose response OPRD1 counterscreen, Set 2.; assay type: functional
Chain of Delta-type opioid receptor (P41143 whole entry): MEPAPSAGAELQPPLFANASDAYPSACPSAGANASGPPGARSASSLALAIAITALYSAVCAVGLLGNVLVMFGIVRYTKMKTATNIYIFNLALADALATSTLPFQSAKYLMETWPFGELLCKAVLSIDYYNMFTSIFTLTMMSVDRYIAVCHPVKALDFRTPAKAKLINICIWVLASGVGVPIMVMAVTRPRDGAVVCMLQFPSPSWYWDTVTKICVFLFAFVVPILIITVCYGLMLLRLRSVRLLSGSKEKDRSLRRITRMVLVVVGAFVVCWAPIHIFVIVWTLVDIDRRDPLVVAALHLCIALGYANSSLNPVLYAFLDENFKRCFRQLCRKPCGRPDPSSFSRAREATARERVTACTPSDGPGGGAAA

Mu-type opioid receptor = Mu-type opioid receptor (Homo sapiens, UniProt P35372); assay: Late-stage results from the probe development effort to identify antagonists of OPRK1: luminescence-based cell-based dose response OPRM1 counterscreen, Set 2.; assay type: functional
[23] = target: Kappa-type opioid receptor (Homo sapiens, UniProt P41145); assay: Late-stage fluorescence-based cell-based dose response assay for antagonists of kappa opioid receptor 1 (OPRK1).; assay type: functional
[24] = target: Sphingosine 1-phosphate receptor 1 (Homo sapiens, UniProt P21453); assay: Late-stage counterscreen for antagonists of kappa opioid receptor 1 (OPRK1): fluorescence-based cell-based dose response assay to identify antagonists of Sphingosine 1-Phosphate Receptor 1 (S1P1).; assay type: functional
Chain of Sphingosine 1-phosphate receptor 1 (P21453 whole entry): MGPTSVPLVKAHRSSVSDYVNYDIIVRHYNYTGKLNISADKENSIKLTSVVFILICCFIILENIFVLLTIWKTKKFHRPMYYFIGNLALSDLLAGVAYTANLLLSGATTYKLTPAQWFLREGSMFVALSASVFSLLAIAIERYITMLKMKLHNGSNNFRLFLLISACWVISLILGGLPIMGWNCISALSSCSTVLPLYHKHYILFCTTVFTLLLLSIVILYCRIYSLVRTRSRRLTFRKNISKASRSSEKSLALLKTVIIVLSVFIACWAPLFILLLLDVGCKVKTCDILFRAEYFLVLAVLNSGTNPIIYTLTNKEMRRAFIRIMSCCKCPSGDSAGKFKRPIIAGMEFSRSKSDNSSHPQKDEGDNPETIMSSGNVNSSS

COc1ccc(OC)c(S(=O)(=O)Nc2cc(SCC(=O)O)c(O)c3ccccc23)c1
CC50 [1]: 9.6 µM (active)

CC(C)(C)c1csc(N/N=C/c2ccc(O)cc2)n1
AC50 (cells [2]): > 52 µM (inactive) | AC50 (HeLa): 69.4 µM (active) | AC50 (cells [3]): > 52 µM (inactive)

CCOC(=O)C1(CCOc2ccccc2)CCN(Cc2ccc(O)cc2)CC1
AC50 [4]: 10 µM (active)

Nc1nnc(CC(=O)N/N=C\c2cc([N+](=O)[O-])ccc2O)s1
IC50 (Nonstructural protein 1): 7.93 µM (active) | IC50 (Albumin): > 94.1 µM (inactive)

CN(CC(=O)Nc1c(Cl)cccc1Cl)C(=O)c1cccc(-n2cccc2)c1
IC50 (Protein Tat): > 100 µM (active) | AC50 (Caspase-6): 1.88 µM (active) | AC50 (Caspase-8): > 70 µM (inactive) | IC50 [5]: 13.9 µM (active) | CC50 [6]: > 40 µM (active) | IC50 [7]: 34.6 µM (active)

CC(C)N1C[C@@H](CN(C)Cc2ccc(Cl)cc2)Oc2c(NC(=O)c3cn(C)cn3)cccc2C1=O
AC50 [8]: 0.0198 µM (active)

CCOC(=O)c1nn(-c2ccc(OC)cc2)c(=O)c2c(N)scc12
AC50 (Caspase-6): 34.3 µM (active) | IC50 [9]: 5.63 µM (active) | EC50 (Protein RecA): 1.59 µM (active) | IC50 (Caspase-3): 23 µM (active) | AC50 [10]: 23.2 µM (active) | IC50 [11]: 6.99 µM (active)

COc1ccc(Br)c(C(=O)Nc2nc3ccccc3[nH]2)c1
EC50 [12]: > 91.1 µM (inactive) | EC50 [13]: > 91.1 µM (inactive)

CCn1cc(CN2CCCC(C(=O)Nc3cccc(-c4cc5ccccc5[nH]4)c3)C2)c(C)n1 (stereo not given)
CC50 (Vero [14]): 24.9 µM (active) | AC50 [15]: 40.9 µM (active)

CCOC(=O)c1ccc(NC(=O)COc2ccc(S(=O)(=O)N3CCCC3)cc2)cc1
EC50 [16]: 1.37 µM (active) | EC50 [17]: 391 nM (active) and 162 nM (active)

CCOc1ccc(NC(=O)c2cc(=O)c(OC)c[nH]2)cc1
IC50 [18]: > 100 µM (inactive) | IC50 [19]: > 100 µM (inactive)

CC1CCC(CN2CCN=C2Nc2ccccc2)CC1 (stereo not given)
AC50 (Vero [20]): 31.6 µM (active)

CCC(SC1=Nc2ccccc2C2=NC(CC(C)C)C(=O)N12)C(=O)Nc1ccc2c(c1)OCO2 (stereo not given)
Ki (fMet-Leu-Phe receptor): 37.6 µM (inactive)

COCCCn1c(C(=O)N2CCOCC2)cc2c(=O)n3ccccc3nc21
AC50 [21]: 9.81 µM (active)

COc1ccc(OS(=O)(=O)c2sc(Br)cc2Br)cc1
IC50 [22]: 35.7 µM (inactive) | IC50 (Mu-type opioid receptor): > 50 µM (inactive) | IC50 [23]: 16.9 µM (inactive) | IC50 [24]: > 50 µM (inactive)
